This is an account of results in patent US5538882A, “Variant-type carbohydrate hydrolase, variant gene of the enzyme and method for producing oligosaccharide using the enzyme” (priority 1993, dated 1996).

Conditions in all cases: substrate 3KB-G5-CNP, hydrolysis
Test [1] concerns the target Saccharomycopsis fibuligera α-amylase (Sfamy) variant SfamyY83L, Y83L, SEQ ID NO: 6 (Saccharomycopsis fibuligera, UniProt P21567, Y109L).
Experimental: (§1) Furthermore, using a substrate with both its non-reducing end terminus and its reducing end terminus modified, i.e. 3KB-G5 -CNP (chloronitrophenyl maltopentaose wherein the hydroxyl group at position 3 of the glucose residue at the non-reducing end terminus is ketobutylated; manufactured by Ono Pharmaceutical Company), the hydrolysis activities of the wild-type enzyme and the variant-type enzymes were determined. 3KB-G5 -CNP cannot function as a substrate for transglycosylation reaction because of the modification of both of the termini, and therefore, only the hydrolysis activity can be assayed.
The target in test [2] is Saccharomycopsis fibuligera α-amylase (Sfamy) variant SfamyY83N, Y83N, SEQ ID NO: 8 (Saccharomycopsis fibuligera, UniProt P21567, Y109N).
Experimental: as §1
In test [3] the target is Saccharomycopsis fibuligera α-amylase (Sfamy) variant SfamyY83F, Y83F, SEQ ID NO: 2 (Saccharomycopsis fibuligera, UniProt P21567, A249P/Y109F).
Experimental: as §1
The target of test [4] is T1, Saccharomycopsis fibuligera α-amylase (Sfamy), wild type (Saccharomycopsis fibuligera, UniProt P21567).
T1 sequence (P21567 27-494): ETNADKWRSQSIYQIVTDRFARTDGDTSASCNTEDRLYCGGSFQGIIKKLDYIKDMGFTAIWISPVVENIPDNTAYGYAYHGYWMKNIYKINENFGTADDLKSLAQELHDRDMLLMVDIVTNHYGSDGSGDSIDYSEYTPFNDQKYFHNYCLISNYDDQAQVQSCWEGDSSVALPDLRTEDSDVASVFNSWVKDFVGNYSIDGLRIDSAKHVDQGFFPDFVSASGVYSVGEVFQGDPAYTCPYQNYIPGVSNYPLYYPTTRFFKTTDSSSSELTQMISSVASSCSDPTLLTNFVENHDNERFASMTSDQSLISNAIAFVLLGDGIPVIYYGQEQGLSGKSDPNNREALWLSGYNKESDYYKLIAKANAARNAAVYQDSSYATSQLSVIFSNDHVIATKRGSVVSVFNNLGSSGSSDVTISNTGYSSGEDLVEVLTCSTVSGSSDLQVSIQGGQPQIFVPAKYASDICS
Experimental: as §1

Test [5] deals with Saccharomycopsis fibuligera α-amylase (Sfamy) variant SfamyY83W, Y83W, SEQ ID NO: 4 (Saccharomycopsis fibuligera, UniProt P21567, Y109W).
Sequence of Saccharomycopsis fibuligera α-amylase (Sfamy) variant SfamyY83W, Y83W, SEQ ID NO: 4 (P21567 27-494 Y109W): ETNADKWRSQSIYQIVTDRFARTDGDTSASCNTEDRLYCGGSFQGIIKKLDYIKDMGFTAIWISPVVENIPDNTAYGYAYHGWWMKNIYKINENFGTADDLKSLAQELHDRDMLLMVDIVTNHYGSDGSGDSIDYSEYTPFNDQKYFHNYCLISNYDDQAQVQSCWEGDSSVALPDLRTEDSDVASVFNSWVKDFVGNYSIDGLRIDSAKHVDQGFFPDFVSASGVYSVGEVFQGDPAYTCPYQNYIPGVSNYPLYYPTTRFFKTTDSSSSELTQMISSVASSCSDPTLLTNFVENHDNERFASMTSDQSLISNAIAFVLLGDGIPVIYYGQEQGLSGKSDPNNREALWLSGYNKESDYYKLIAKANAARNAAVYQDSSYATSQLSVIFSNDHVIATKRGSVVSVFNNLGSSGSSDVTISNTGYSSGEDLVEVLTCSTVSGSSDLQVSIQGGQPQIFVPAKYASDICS
Experimental: as §1

Sequence of Saccharomycopsis fibuligera α-amylase (Sfamy) variant SfamyY83F, Y83F, SEQ ID NO: 2 (P21567 27-494 Y109F/A249P): as the sequence (P21567 27-494 Y109W) above, with W83F, A223P counted along it
Sequence of Saccharomycopsis fibuligera α-amylase (Sfamy) variant SfamyY83N, Y83N, SEQ ID NO: 8 (P21567 27-494 Y109N): as the sequence (P21567 27-494 Y109W) above, with W83N counted along it
Sequence of Saccharomycopsis fibuligera α-amylase (Sfamy) variant SfamyY83L, Y83L, SEQ ID NO: 6 (P21567 27-494 Y109L): as the sequence (P21567 27-494 Y109W) above, with W83L counted along it

The Km is the substrate concentration at which the rate is half of its maximum. A word on the kcat: it is the maximal rate divided by the concentration of active sites. As a reminder, the kcat/Km is the turnover number divided by the Michaelis constant. In the case of `CC(=O)CC1OC[C@H]2O[C@H](O[C@H]3[C@H](O)[C@@H](O)[C@@H](O[C@H]4[C@H](O)[C@@H](O)[C@@H](O[C@H]5[C@H](O)[C@@H](O)[C@@H](O[C@H]6[C@H](O)[C@@H](O)[C@H](Oc7ccc([N+](=O)[O-])cc7Cl)O[C@@H]6CO)O[C@@H]5CO)O[C@@H]4CO)O[C@@H]3CO)[C@H](O)[C@@H](O)[C@@H]2O1` (stereo partly drawn) [3KB-G5 -CNP], the Km in test [1] came out at 120 µM; in test [2] it was 190 µM; in test [3], 130 µM; in test [4], 60 µM; in test [5] it was 150 µM. Besides, the turnover number (kcat) was found to be 0.183 s⁻¹ in test [1]; 0.267 s⁻¹ in test [2]; 2.5 s⁻¹ in test [3]; 15.3 s⁻¹ in test [4]; 2.17 s⁻¹ in test [5]. Also, the kcat/Km stood at 1550 M⁻¹ s⁻¹ in test [1]; 1430 M⁻¹ s⁻¹ in test [2]; 20000 M⁻¹ s⁻¹ in test [3]; 250000 M⁻¹ s⁻¹ in test [4]; 14500 M⁻¹ s⁻¹ in test [5].
